We go through eight compounds from article PMC9964635, “Bio-Oriented Synthesis and Molecular Docking Studies of 1,2,4-Triazole Based Derivatives as Potential Anti-Cancer Agents against HepG2 Cell Line” (Pharmaceuticals, 2023).

In brackets after ≈: the same amount, converted by molar mass.

The test system of one series is HepG2 cell line. The series is described as follows: MTT assay, cell viability against HepG2. It counts as cell-based. The following applies: Homo sapiens; for inhibition at 3.125 µg/mL / inhibition at 6.25 µg/mL / inhibition at 12.5 µg/mL / inhibition at 25 µg/mL / inhibition at 50 µg/mL / inhibition at 100 µg/mL / inhibition at 200 µg/mL: HepG2; for IC50: HepG2, MTT, 48 h. The method, then:
The anti-hepatocellular activity of afforded N-arylated 1,2,4-triazole coupled acetamides (7a–f) was evaluated via MTT assay and these structural hybrids were screened against a liver cancer HepG2 cell line.
The cell viability of all of the compounds was further evaluated using various concentrations ([…]) to test the dose response and % inhibition relationship as shown in Table 2.
Human HepG2 liver cancer cell lines were cultured by Dulbecco’s modified Eagle’s medium. It is composed of 100 μg/mL streptomycin, 100 units/mL penicillin, and 10% FBS. A humidified atmosphere was provided for incubation at 37 °C with 5% CO2. The anti-hepatocellular therapeutic potential of triazole-based scaffolds was evaluated by dissolving its different concentrations in 0.05% DMSO.
An MTT assay was applied for evaluation of cell viability against the HepG2 cell line. In short, different concentrations of new triazole-based scaffolds were incubated with HepG2 cell lines for 48 h. After incubation, 5 mg/mL of 10 µL MTT solution was added in each plate and they were further incubated at 37 °C for 4 h. The percentage of cell viability was calculated at 490 nm after the addition of 150 μL DMSO into a microplate reader (Thermo Scientific, Waltham, MA, USA).
On the technique in general: Tetrazolium dyes change colour on reduction, which living cells bring about.

For series [1] the following is noted: no reference given; cited from earlier work.
Series [2] can be described thus: Hemolytic activity, Triton-X-100 as standard. The following applies: relative to Triton-X-100. An excerpt: Hemolytic activity was investigated by the reported method using Triton-X-100 as a standard. Molecule 7f also presented very low toxicity at 1.19 ± 0.02 relative to reference Triton-X-100. All of the other compounds had moderately good hemolytic activity.
Hemolytic activity was investigated by the reported method using Triton-X-100 as standard.

In general, melting point refers to the temperature of the solid-liquid transition. Broadly, the inhibition is the drop in the measured response relative to a control, in per cent. High values mean strong suppression, low ones little suppression. By IC50 is commonly meant the concentration at which inhibition is half-maximal. A high value points to weaker potency in that assay. `CCc1ccc(NC(=O)CSc2nnc(C(C)c3ccc(CC(C)C)cc3)n2C)cc1` (stereo not shown) [Compound 7c, N-(4-Ethylphenyl)-2-((5-(1-(4-Isobutylphenyl)Ethyl)-4-Methyl-4H-1,2,4-Triazol-3-yl)Thio)Acetamide] registered a melting point of 100 to 102 °C. In the series on HepG2 cell line, this compound gave an inhibition at 3.125 µg/mL of 15.4 ± 2.01%, an inhibition at 6.25 µg/mL of 17.4 ± 1.32%, an inhibition at 12.5 µg/mL of 19.1 ± 1.25% and an inhibition at 25 µg/mL of 22.8 ± 0.29%. In the series with HepG2 cell line, this compound had an inhibition at 50 µg/mL of 73.7 ± 15.5%, an inhibition at 100 µg/mL of 78.8 ± 10.8%, an inhibition at 200 µg/mL of 87.51 ± 0.2% and an IC50 of 39 µg/mL (≈ 89.3 µM).
Take `CNC(=O)c1cc(Oc2ccc(NC(=O)Nc3ccc(Cl)c(C(F)(F)F)c3)cc2)ccn1` [Sorafenib, reference compound]: in the series with HepG2 cell line, it took 5.97 µg/mL (≈ 12.8 µM) to reach half-maximal inhibition (IC50). For the same compound, in series [1], the bioavailability was 38–49%.
`CC(C)Cc1ccc(C(C)c2nnc(SCC(=O)Nc3ccccc3Cl)n2C)cc1` (stereo not shown) [Compound 7d, N-(2-Chlorophenyl)-2-((5-(1-(4-Isobutylphenyl)Ethyl)-4-Methyl-4H-1,2,4-Triazol-3-yl)Thio)Acetamide]: the melting point lay in the range of 123 to 125 °C. In the series on HepG2 cell line, this compound had an inhibition at 3.125 µg/mL of 14.3 ± 4.27%, an inhibition at 6.25 µg/mL of 17.3 ± 1.4%, an inhibition at 12.5 µg/mL of 19.1 ± 17.7% and an inhibition at 25 µg/mL of 19.5 ± 1.44%. In the series with HepG2 cell line, this compound returned an inhibition at 50 µg/mL of 76.7 ± 5.63%, an inhibition at 100 µg/mL of 78.33 ± 0.78%, an inhibition at 200 µg/mL of 87.7 ± 0.18% and an IC50 of 39.7 µg/mL (≈ 89.5 µM).
Turning to `Cc1cc(Br)ccc1NC(=O)CSc1nnc(C(C)c2ccc(CC(C)C)cc2)n1C` (stereo not shown) [Compound 7b, N-(4-Bromo-2-Mthylphenyl)-2-((5-(1-(4-Isobutylphenyl)Ethyl)-4-Methyl-4H-1,2,4-Triazol-3-yl)Thio)Acetamide], the melting point lay within 122 to 124 °C. In the series with HepG2 cell line, this compound returned an inhibition at 3.125 µg/mL of 10.3%, an inhibition at 6.25 µg/mL of 24.8 ± 4.62%, an inhibition at 12.5 µg/mL of 25.2 ± 4.67% and an inhibition at 25 µg/mL of 31.9 ± 0.3%. In the series on HepG2 cell line, this compound showed an inhibition at 50 µg/mL of 88.6 ± 1.11%, an inhibition at 100 µg/mL of 89.4 ± 0.91%, an inhibition at 200 µg/mL of 89.5 ± 0.06% and an IC50 of 33.6 µg/mL (≈ 66.9 µM).
The compound `CC(C)Cc1ccc(C(C)c2nnc(SCC(=O)Nc3ccccc3)n2C)cc1` (stereo not shown) [Compound 7e, N-(Phenyl)-2-((5-(1-(4-Isobutylphenyl)Ethyl)-4-Methyl-4H-1,2,4-Triazol-3-yl)Thio)Acetamide] gave a melting point of 88 to 90 °C. In the series with HepG2 cell line, this compound yielded an inhibition at 3.125 µg/mL of 18.6 ± 0.5%, an inhibition at 6.25 µg/mL of 20.5 ± 7.11%, an inhibition at 12.5 µg/mL of 21 ± 3.13% and an inhibition at 25 µg/mL of 24 ± 6.12%. For the same compound, in the series on HepG2 cell line, the inhibition at 50 µg/mL was found to be 74.2 ± 13.2%, the inhibition at 100 µg/mL turned out to be 87.3 ± 2.09%, 200 µg/mL produced 88 ± 1.44% inhibition and it took 39.1 µg/mL (≈ 95.7 µM) to reach half-maximal inhibition (IC50).
The compound `Cc1cccc(C)c1NC(=O)CSc1nnc(C(C)c2ccc(CC(C)C)cc2)n1C` (stereo not shown) [Compound 7f, N-(2,6-Dimethylphenyl)-2-((5-(1-(4-Isobutylphenyl)Ethyl)-4-Methyl-4H-1,2,4-Triazol-3-yl)Thio)Acetamide] yielded a melting point of 150 to 152 °C. Also, in the series on HepG2 cell line, the inhibition at 3.125 µg/mL is 8.4 ± 4.54%, the inhibition at 6.25 µg/mL amounted to 19.6 ± 4.07%, the inhibition at 12.5 µg/mL amounted to 34 ± 2.47% and the inhibition at 25 µg/mL came out at 85.9 ± 0.3%. In the series with HepG2 cell line, this compound showed an inhibition at 50 µg/mL of 86.57 ± 0.56%, an inhibition at 100 µg/mL of 87.7 ± 1.34%, an inhibition at 200 µg/mL of 88.36 ± 0.31% and an IC50 of 16.8 µg/mL (≈ 38.4 µM).
In turn, `Cc1ccccc1NC(=O)CSc1nnc(C(C)c2ccc(CC(C)C)cc2)n1C` (stereo not shown) [Compound 7a, N-(2-Methylphenyl)-2-((5-(1-(4-isobutylphenyl)ethyl)-4-methyl-4H-1,2,4-triazol-3-yl)thio)Acetamide] yielded a melting point of 122 to 124 °C. In the series on HepG2 cell line, this compound registered an inhibition at 3.125 µg/mL of 11.6%, an inhibition at 6.25 µg/mL of 21.4 ± 6.24%, an inhibition at 12.5 µg/mL of 27.7 ± 6.46% and an inhibition at 25 µg/mL of 64 ± 1.67%. For the same compound, in the series with HepG2 cell line, the inhibition at 50 µg/mL was determined as 75.2 ± 5.99%, the inhibition at 100 µg/mL was found to be 88.17 ± 0.26%, the inhibition at 200 µg/mL is 89.4 ± 0.34% and the IC50 turned out to be 20.7 µg/mL (≈ 48.9 µM).
Take Triton-X-100 [reference compound]: the “Hemolytic Activity (Mean% ± S.D)” value came to 100 ± 0.0% in series [2] and 100% in series [2] (listed as Triton X100).
